Patent publication US11603391B2, “CATH2 derivatives” (Universiteit Utrecht Holding B.V., priority 2014, dated 2023)
No end group written: not given here.

Assays:
J774.A1 cells = experiment: Inhibition of APEC O78-induced TNFα production by macrophages (ELISA); format: cell-based, murine; details: 5 μM peptide, 2 h, DMEM/10% FCS; for inhibition of TNFα production induced by heat-killed bacteria: 3×10^5 CFU/ml heat-killed APEC O78; for inhibition of TNFα production induced by live bacteria: 3×10^5 CFU/ml live APEC O78
Method: (§1) FIG. 9A-9C—Antibacterial activity of CMAP27 derived peptides in vitro against an avian pathogenic Escherichia coli O78 (APEC O78) field isolate. A) Antibacterial activity of peptides (5 μM) against APEC O78 (2×10^6 CFU/ml) in 50% Mueller Hinton broth using colony count assays. B) Antibacterial activity of peptides (5 μM) against APEC O78 (3×10^5 CFU/ml) in DMEM containing 10% fetal calf serum (FCS) using colony count assays. C) TNFα production by J774.A1 cells (ELISA) after 2 h incubation at 37° C. with live or heat-killed APEC O78 (3×10^5 CFU/m) in DMEM/10% FCS, in the presence or absence of 5 μM peptide. Data represents means±SEM from 3 independent experiments.
Peptide-mediated inhibition of macrophage activation induced by live or heat-killed APEC O78, was examined using J774.A1 cells, a murine macrophage cell line. For this purpose, J774.A1 cells (150,000 cells/well) cultured in DMEM containing 10% FCS were exposed during 2 h at 37° C. to 3×10^5 CFU/ml APEC O78 with or without 5 μM peptide, after which supernatants were collected and used to determine TNFα production (ELISA).

HD11 cells [1] = experiment: Uptake of Alexa-Fluor 488 labeled ODN-2006 by HD11 cells (flow cytometry); format: cell-based, chicken; details: 5 μM peptide; 2.5 nM Alexa-Fluor 488 labeled ODN-2006; 4 h
Method: (§2) FIG. 13A-13B—CMAP27 derived peptides enhance DNA uptake and DNA-induced activation. A) HD11 cells were stimulated during 4 h with 2.5 nM Alexa-Fluor 488 labeled ODN-2006 in the absence and presence of CMAP27 derived peptides (5 μM), after which DNA uptake was analyzed by flow cytometry. B) Supernatants of HD11 cells stimulated for longer time (17 h) under these same conditions were collected and used for determination of nitric oxide production using the Griess assay. Data represents means±SEM from 3-4 independent experiments.
(§3) To study effects of peptides on the uptake of DNA, HD11 cells were seeded 3×10^5 cells in 24-wells plates, stimulated during 4 h with 2.5 nM Alexa-Fluor 488 labeled ODN-2006 in the absence and presence of CMAP27 derived peptides (5 μM), after which DNA uptake was analyzed by flow cytometry. Activation of HD11 cells was examined by collecting supernatants after 17 h under the same conditions and determination of nitric oxide production.

HD11 cells [2] = experiment: Neutralization of LPS-induced interleukin-1β transcription in HD11 cells (real time PCR); format: cell-based, chicken; details: 20 μM peptide pre-incubated with 50 ng/ml LPS; 4 h
Method: (§4) FIG. 11A-11B—Neutralization of lipopolysaccharide-induced interleukin-1β induction and nitric oxide production in HD11 cells by CMAP27 derived peptides. HD11 cells were seeded in 96 wells tissue culture treated plates (2×10^5 cell/mL) in RPMI-1640/10% FCS. Final concentrations of 50 ng/ml LPS were pre-incubated with or without 20 μM peptide for 30 min at 37° C. (5% CO2), applied to the cells and incubated for 4 h and 24 h. A) Transcription levels of interleukin-1 were determined by real time PCR (4 h only). B) Supernatants were collected for the determination of nitric oxide production (24 h incubations only) using the Griess assay. Significance levels: *P<0.05, **P<0.01, ***P<0.001. Data represents means±SEM from 3-4 independent experiments.
as §4, with “FIG. 12A-12B—Substitution” for “FIG. 11A-11B—Neutralization”, “of phenylalanine residues by tryptophan enhances the” for “of lipopolysaccharide-induced interleukin-1β induction and nitric oxide production”, “in vitro LPS neutralization capacity of” for “in HD11 cells by”, “h or” for “h and”
(§5) HD11 cells were seeded in 96 wells tissue culture treated plates (2×10^5 cell/mL) in RPMI-1640/10% FCS. Final concentrations of 50 ng/ml Salmonella minnesota LPS were pre-incubated with or without 20 μM peptide for 30 min at 37° C. (5% CO2), applied to the cells and incubated for 4 h and 24 h. A) Transcription levels of interleukin-1 were determined by real time PCR (4 h only). B) Supernatants were collected for the determination of nitric oxide production (24 h incubations only) using the Griess assay.

HD11 cells [3] = experiment: Neutralization of LPS-induced nitric oxide production in HD11 cells (Griess assay); format: cell-based, chicken; details: 20 μM peptide pre-incubated with 50 ng/ml LPS; 24 h
Method: as §4
as §4, with “FIG. 12A-12B—Substitution” for “FIG. 11A-11B—Neutralization”, “of phenylalanine residues by tryptophan enhances the” for “of lipopolysaccharide-induced interleukin-1β induction and nitric oxide production”, “in vitro LPS neutralization capacity of” for “in HD11 cells by”, “h or” for “h and”
as §5

HD11 cells [4] = experiment: DNA-induced nitric oxide production in HD11 cells (Griess assay); format: cell-based, chicken; details: 5 μM peptide; 2.5 nM ODN-2006; 17 h
Method: as §2, §3

[5] = test system: avian pathogenic Escherichia coli O78 (APEC O78) field isolate; experiment: Antibacterial colony count assay in DMEM containing 10% fetal calf serum; format: cell-based; details: 5 μM peptide, 3×10^5 CFU/ml, 2 h at 37° C., DMEM/10% FCS
Method: as §1
To test if peptides would be able to inhibit bacteria under more challenging conditions, e.g. in the presence of salts and serum proteins, APEC O78 was incubated with peptide in DMEM medium containing 10% fetal calf serum. In brief, bacterial survival was estimated by incubating 3×10^5 CFU/ml APEC O78 during 2 h at 37° C. in DMEM/10% FCS in the presence or absence of 5 μM peptide, after which serial dilutions were made, spread on agar media and colonies were enumerated after 24 h incubation at 37° C.

HD11 cells [6] = experiment: Chemokine induction in HD11 cells (real time PCR); format: cell-based, chicken; details: 20 μM peptide
Method: FIG. 10—Chemokine induction by CMAP27 derived peptides in HD11 cells. HD11 cells were seeded in 96 wells tissue culture treated plates (2×10^5 cell/mL) in RPMI-1640/10% FCS and incubated at 37° C. (5% CO2) with peptide (20 μM) supplemented medium during 4 h (open bars) or 24 h (closed bars). Transcription levels of interleukin-1β, IL-8 (CXCLi2), monocyte chemotactic protein-3 (MCP-3) and RANTES (CCLi4) were determined by real time PCR. Significance levels: *P<0.05, **P<0.01, ***P<0.001. Data represents means±SEM from 3-4 independent experiments.
HD11 cells, a chicken macrophage cell line, were seeded in 96 wells tissue culture treated plates (2×10^5 cell/mL) in RPMI-1640/10% FCS and incubated at 37° C. (5% CO2) with peptide (20 μM) supplemented medium during 4 h or 24 h. Transcription levels of interleukin-1β, -8 (CXCLi2), monocyte chemotactic protein-3 (MCP-3) and RANTES (CCLi4) were determined by real time PCR.

Substance | inhibition of TNFα production induced by heat-killed bacteria (J774.A1 cells) | inhibition of TNFα production induced by live bacteria (J774.A1 cells) | uptake of ODN-2006 by HD11 cells (HD11 cells [1]) | LPS-induced IL-1β expression blocked (HD11 cells [2]) [%] | LPS-induced NO production blocked (HD11 cells [3]) [%] | DNA-induced nitric oxide production (HD11 cells [4]) | inhibition of bacterial growth (antibacterial activity, in words) [5] | induction of CXCLi2/IL-8 transcription (HD11 cells [6]; 4 h or 24 h) | induction of MCP-3 transcription (HD11 cells [6]; 4 h or 24 h) | induction of proinflammatory cytokine IL-1β transcription (HD11 cells [6]; 4 h or 24 h) | induction of CCLi4/RANTES transcription (HD11 cells [6]; prolonged stimulation (24 h) needed) | surviving bacteria ([5]; detection limit) [cells/ml] | LPS-neutralizing activity (block of LPS-induced IL-1β expression, in words) (HD11 cells [2])
CMAP1-21-NH2: C-terminally truncated CMAP27 derivative, residues 1-21 | substantially inhibited | substantially inhibited | enhanced the uptake | 93.5 | 78.9 | increasing | substantially inhibited | – | – | – | – | – | –
RFGRFLRKIRRFRPKVTITIQGSARF-NH2 [CMAP1-26-NH2] | substantially inhibited | substantially inhibited | enhanced the uptake | 90.8 | 96.2 | increasing | substantially inhibited | induce transcription | induce transcription | not induced | induce transcription | < 100 | –
CMAP7-21-NH2: N-terminally truncated variant of CMAP1-21, 15 amino acid residues (RKIRRFRPKVTITIQ-NH2) | inhibited to some extent | – | enhanced the uptake | – | – | increasing | lacking antibacterial activity | maintained a capacity to induce | maintained a capacity to induce | – | – | – | lack LPS-neutralizing activity
CMAP4-21-NH2: N-terminally truncated variant of CMAP1-21 (RFLRKIRRFRPKVTITIQ-NH2) | – | – | enhanced the uptake | 80.5 | 51 | increasing | substantially inhibited | – | – | – | – | – | –
